Assays:
[1] = 101 kPa, Liquid; for viscosity: Capillary tube (Ostwald / Ubbelohde) method; for speed of sound: Sing-around technique in a fixed-path interferometer
[2] = xn = mol fraction of the nth substance listed; settings: 101 kPa, Liquid, x1 = 1; for viscosity: Capillary tube (Ostwald / Ubbelohde) method; for speed of sound: Sing-around technique in a fixed-path interferometer

CC(C)CCCC(C)CCCC(C)CCCCC(C)CCCC(C)CCCC(C)C (stereo not given) [2,6,10,15,19,23-hexamethyltetracosane]
[1]
Settings | speed of sound [m/s] | viscosity [mPa·s]
298.15 K | 1381.9 | 28.26
303.15 K | 1364.1 | 22.09
308.15 K | 1346.5 | 17.77

[1], Vibrating tube method
Settings | mass density [kg/m3]
298.15 K | 805.122
303.15 K | 801.912
308.15 K | 798.709

CCCCO [butan-1-ol]
[1]
Settings | mass density [kg/m3] | speed of sound [m/s] | viscosity [mPa·s]
298.15 K | 805.907 | 1240.5 | 2.573
303.15 K | 803.155 | 1226.5 | 2.275
308.15 K | 799.249 | 1209.8 | 1.981

CCCCO [butan-1-ol] + CC(C)CCCC(C)CCCC(C)CCCCC(C)CCCC(C)CCCC(C)C
[2]
Settings | speed of sound [m/s] | viscosity [mPa·s]
298.15 K | 1240.5 | 2.573
303.15 K | 1226.5 | 2.275
308.15 K | 1209.8 | 1.981

[2], Vibrating tube method
Settings | mass density [kg/m3]
298.15 K | 805.907
303.15 K | 803.155
308.15 K | 799.249

CCCCO [butan-1-ol] + CCCCCCCCCCCCCCCC
[2]
Settings | mass density [kg/m3] | speed of sound [m/s] | viscosity [mPa·s]
298.15 K | 805.907 | 1240.5 | 2.573
303.15 K | 803.155 | 1226.5 | 2.275
308.15 K | 799.249 | 1209.8 | 1.981

CCCCCCCCCCCCCCCC [hexadecane]
[1]
Settings | mass density [kg/m3] | speed of sound [m/s] | viscosity [mPa·s]
298.15 K | 770.456 | 1338.6 | 3.041
303.15 K | 766.981 | 1320 | 2.706
308.15 K | 763.52 | 1301.7 | 2.409

Reference: the NIST ThermoML archive (doi:10.1021/je7007654)
